The target of one test is human CB2 receptors (Homo sapiens (Human), UniProt P34972). Nature of the test: cAMP assay (functional), CHO cells expressing human CB2 receptors. In kind it is cell-based. As to the method: (§1) CHO cells expressing human CB1 or CB2 receptors are seeded 17-24 hours prior to the experiment 50.000 cells per well in a black 96 well plate with flat clear bottom (Corning Costar #3904) in DMEM (Invitrogen No. 31331), 1×HT supplement, with 10% fetal calf serum and incubated at 5% CO2 and 37° C. in a humidified incubator. The growth medium was exchanged with Krebs Ringer Bicarbonate buffer with 1 mM IBMX and incubated at 30° C. for 30 min. Compounds were added to a final assay volume of 100 μl and incubated for 30 min at 30° C. Using the cAMP-Nano-TRF detection kit the assay (Roche Diagnostics) was stopped by the addition of 50 μl lysis reagent (Tris, NaCl, 1.5% Triton X100, 2.5% NP40, 10% NaN3) and 50 μl detection solutions (20 μM mAb Alexa700-cAMP 1:1, and 48 μM Ruthenium-2-AHA-cAMP) and shaken for 2 h at room temperature. The time-resolved energy transfer is measured by a TRF reader (Evotec Technologies GmbH), equipped with a ND:YAG laser as excitation source. The plate is measured twice with the excitation at 355 nm and at the emission with a delay of 100 ns and a gate of 100 ns, total exposure time 10 s at 730 (bandwidth 30 nm) or 645 nm (bandwidth 75 nm), respectively. The FRET signal is calculated as follows: FRET=T730-Alexa730-P (T645-B645) with P=Ru730-B730/Ru645-B645, where T730 is the test well measured at […], T645 is the test well measured at 645 nm, B730 and B645 are the buffer controls at 730 nm and 645 nm, respectively. cAMP content is determined from the function of a standard curve spanning from 10 μM to 0.13 nM cAMP.
(§2) EC50 values were determined using Activity Base analysis (ID Business Solution, Limited). The EC50 values for a wide range of cannabinoid agonists generated from this assay were in agreement with the values published in the scientific literature.
For orientation: Changes in cAMP serve as a functional read-out for many G protein-coupled receptors.

Another test concerns the target human CB1 receptors (Homo sapiens (Human), UniProt P21554). Nature of the test: cAMP assay (functional), CHO cells expressing human CB1 receptors. Type of test: cell-based. How it is done:
as §1, §2

Setting [1] is: functional cAMP assay, CHO cells expressing human CB2, read-out: human CB2 EC50.
Where [2] appears, read: functional cAMP assay, CHO cells expressing human CB1, read-out: human CB1 EC50.

Drawing on patent US9512141B2, “Pyrazine derivatives as CB2 receptor agonists” (Hoffmann-La Roche Inc., priority 2012, dated 2016), this text covers EC50 for 21 compounds.

Like-named read-outs stand apart in the source and are kept apart here.

Chain of human CB1 receptors (P21554 whole entry): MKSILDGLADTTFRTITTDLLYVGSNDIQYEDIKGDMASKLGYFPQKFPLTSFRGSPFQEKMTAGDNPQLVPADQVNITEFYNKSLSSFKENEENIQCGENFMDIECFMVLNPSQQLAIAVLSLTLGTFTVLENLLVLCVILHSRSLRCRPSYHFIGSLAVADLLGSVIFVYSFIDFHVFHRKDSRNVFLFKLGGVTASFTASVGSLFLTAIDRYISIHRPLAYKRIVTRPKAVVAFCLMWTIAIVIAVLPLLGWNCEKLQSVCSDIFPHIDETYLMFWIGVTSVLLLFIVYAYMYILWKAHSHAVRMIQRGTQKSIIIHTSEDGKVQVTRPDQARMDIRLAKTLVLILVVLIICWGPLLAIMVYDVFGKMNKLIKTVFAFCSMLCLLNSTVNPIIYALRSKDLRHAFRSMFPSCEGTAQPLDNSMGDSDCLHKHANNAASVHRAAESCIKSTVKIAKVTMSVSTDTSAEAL
Chain of human CB2 receptors (P34972 whole entry): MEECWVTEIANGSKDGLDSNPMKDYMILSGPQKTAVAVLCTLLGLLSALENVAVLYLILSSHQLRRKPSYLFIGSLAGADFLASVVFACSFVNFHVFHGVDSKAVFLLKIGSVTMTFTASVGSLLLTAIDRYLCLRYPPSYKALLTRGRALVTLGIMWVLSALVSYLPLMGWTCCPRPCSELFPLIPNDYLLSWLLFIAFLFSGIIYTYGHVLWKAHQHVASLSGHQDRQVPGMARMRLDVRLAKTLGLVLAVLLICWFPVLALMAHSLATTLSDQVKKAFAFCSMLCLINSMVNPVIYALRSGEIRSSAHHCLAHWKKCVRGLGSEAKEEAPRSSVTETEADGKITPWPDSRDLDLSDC

As to `CC1(C)CC(C(N)=O)N(C(=O)c2cnc(N3CC(F)(F)C3)c(OCC3CC3)n2)C1` (single isomer, unassigned; (-)) [Example 38, (−)-1-[6-Cyclopropylmethoxy-5-(3,3-difluoro-azetidin-1-yl)-pyrazine-2-carbonyl]-4,4-dimethyl-pyrrolidine-2-carboxylic acid amide], the EC50 is 1.4 nM at human CB2 receptors (setting [1]) and over 10000 nM on human CB1 receptors (setting [2]).
For `COCC(C)(C)N(C)C(=O)c1cnc(C2CC2)c(OCC2CC2)n1` [Example 14, 5-Cyclopropyl-6-cyclopropylmethoxy-pyrazine-2-carboxylic acid (2-methoxy-1,1-dimethyl-ethyl)-methyl-amide], in that order: 14.6 nM and over 10000 nM.
On the same counts, the results for `CC(=O)OC1(C)CCN(C(=O)c2cnc(C3CC3)c(OCC3CC3)n2)C1` (stereo not drawn) [Example 25, Acetic acid 1-(5-cyclopropyl-6-cyclopropylmethoxy-pyrazine-2-carbonyl)-3-methyl-pyrrolidin-3-yl ester] are 110 nM and over 10000 nM.
On the same counts, the results for `CN(C(=O)c1cnc(N2CC(F)(F)C2)c(OCC(F)(F)F)n1)C(C)(C)C` [Example 31, 5-(3,3-Difluoro-azetidin-1-yl)-6-(2,2,2-trifluoro-ethoxy)-pyrazine-2-carboxylic acid tert-butyl-methyl-amide] are 130 nM and over 10000 nM.
As for `CCOC(=O)CN(C(=O)c1cnc(N2CC(F)(F)C2)c(OCC2CC2)n1)C(C)(C)C` [Example 11, {tert-Butyl-[6-cyclopropylmethoxy-5-(3,3-difluoro-azetidin-1-yl)-pyrazine-2-carbonyl]-amino}-acetic acid ethyl ester], the results for the EC50 on human CB2 receptors (setting [1]) and on human CB1 receptors (setting [2]) were 6.8 nM and over 10000 nM, respectively.
`O=C(c1cnc(N2CC(F)(F)C2)c(OCC2CC2)n1)N1CCC2(COC2)C1` [Example 28, [6-Cyclopropylmethoxy-5-(3,3-difluoro-azetidin-1-yl)-pyrazin-2-yl]-(2-oxa-6-aza-spiro[3.4]oct-6-yl)-methanone]: the values for the EC50 on human CB2 receptors (setting [1]) and at human CB1 receptors (setting [2]) were 204 nM and over 10000 nM, respectively.
On the same counts, the results for `NC(=O)C1CSCCN1C(=O)c1cnc(N2CC(F)(F)C2)c(OCC2CC2)n1` (single isomer, unassigned; (-)) [Example 37, (−)-4-[6-Cyclopropylmethoxy-5-(3,3-difluoro-azetidin-1-yl)-pyrazine-2-carbonyl]-thiomorpholine-3-carboxylic acid amide] are 308 nM and over 10000 nM.
On the same counts, the results for `O=C(c1cnc(N2CC(F)(F)C2)c(OCC2CC2)n1)N1CC2CC1CO2` (stereo not drawn) [Example 6, [6-Cyclopropylmethoxy-5-(3,3-difluoro-azetidin-1-yl)-pyrazin-2-yl]-2-oxa-5-aza-bicyclo[2.2.1]hept-5-yl-methanone] are 257 nM and over 10000 nM.
Regarding `CC1(C)CN(C(=O)c2cnc(N3CC(F)(F)C3)c(OCC3CC3)n2)CCO1` [Example 13, [6-Cyclopropylmethoxy-5-(3,3-difluoro-azetidin-1-yl)-pyrazin-2-yl]-(2,2-dimethyl-morpholin-4-yl)-methanone], the results for the EC50 at human CB2 receptors (setting [1]) and at human CB1 receptors (setting [2]) were 68.5 nM and over 10000 nM, respectively.
On the same counts, the results for `CC1(C)COCCN1C(=O)c1cnc(N2CC(F)(F)C2)c(OCC2CC2)n1` [Example 4, [6-Cyclopropylmethoxy-5-(3,3-difluoro-azetidin-1-yl)-pyrazin-2-yl]-(3,3-dimethyl-morpholin-4-yl)-methanone] are 4.3 nM and over 10000 nM.
On the same counts, the results for `O=C(c1cnc(N2CC(F)(F)C2)c(OCC2CC2)n1)N1CC(F)(F)C(F)(F)C1` [Example 30, [6-Cyclopropylmethoxy-5-(3,3-difluoro-azetidin-1-yl)-pyrazin-2-yl]-(3,3,4,4-tetrafluoro-pyrrolidin-1-yl)-methanone] are 26.3 nM and over 10000 nM.
For `CC1(C)CCCN1C(=O)c1cnc(N2CC(F)(F)C2)c(OCC(F)(F)F)n1` [Example 32, [5-(3,3-Difluoro-azetidin-1-yl)-6-(2,2,2-trifluoro-ethoxy)-pyrazin-2-yl]-(2,2-dimethyl-pyrrolidin-1-yl)-methanone], the EC50 is 81.2 nM on human CB2 receptors (setting [1]) and over 10000 nM on human CB1 receptors (setting [2]).
As to `CC(=O)O[C@H]1CCN(C(=O)c2cnc(N3CC(F)(F)C3)c(OCC3CC3)n2)C1` [Example 27, Acetic acid (S)-1-[6-cyclopropylmethoxy-5-(3,3-difluoro-azetidin-1-yl)-pyrazine-2-carbonyl]-pyrrolidin-3-yl ester], the EC50 on human CB2 receptors (setting [1]) was 271 nM; at human CB1 receptors (setting [2]), over 10000 nM.
For `O=C1CN(C(=O)c2cnc(N3CC(F)(F)C3)c(OCC3CC3)n2)CCO1` [Example 23, 4-[6-Cyclopropylmethoxy-5-(3,3-difluoro-azetidin-1-yl)-pyrazine-2-carbonyl]-morpholin-2-one], in that order: 18.4 nM and over 10000 nM.
Take `NC(=O)C1CC2(CC2)CN1C(=O)c1cnc(N2CC(F)(F)C2)c(OCC2CC2)n1` (racemic) [Example 40, (±)-5-[6-(Cyclopropylmethoxy)-5-(3,3-difluoroazetidin-1-yl)pyrazine-2-carbonyl]-5-azaspiro[2.4]heptane-6-carboxamide]: the EC50 on human CB2 receptors is 39 nM; at human CB1 receptors, over 10000 nM.
As for `NC(=O)[C@@H]1CC(F)(F)CN1C(=O)c1cnc(N2CC(F)(F)C2)c(OCC(F)F)n1` [Example 42, (2S)-1-[5-(3,3-Difluoroazetidin-1-yl)-6-(2,2-difluoroethoxyl)pyrazine-2-carbonyl]-4,4-difluoro-pyrrolidine-2-carboxamide], the EC50 at human CB2 receptors (setting [1]) was 310 nM; at human CB1 receptors (setting [2]), over 10000 nM.
On the same counts, the results for `COC(=O)[C@H]1CCCN1C(=O)c1cnc(N2CC(F)(F)C2)c(OCC2CC2)n1` [Example 22, (R)-1-[6-Cyclopropylmethoxy-5-(3,3-difluoro-azetidin-1-yl)-pyrazine-2-carbonyl]-pyrrolidine-2-carboxylic acid methyl ester] are 252 nM and over 10000 nM.
For `COCC(C)(C)N(C)C(=O)c1cnc(N2CC(F)(F)C2)c(OCC2CC2)n1` [Example 12, 6-Cyclopropylmethoxy-5-(3,3-difluoro-azetidin-1-yl)-pyrazine-2-carboxylic acid (2-methoxy-1,1-dimethyl-ethyl)-methyl-amide], in that order: 9.2 nM and over 10000 nM.
`CC1(C)CC(C(N)=O)N(C(=O)c2cnc(C3CC3)c(OCC3CC3)n2)C1` (stereo not drawn) [Example 34, 1-(5-Cyclopropyl-6-cyclopropylmethoxy-pyrazine-2-carbonyl)-4,4-dimethyl-pyrrolidine-2-carboxylic acid amide]: the EC50 is 1.6 nM on human CB2 receptors (setting [1]) and over 10000 nM at human CB1 receptors (setting [2]).
For `CC1(C)CC(C(N)=O)N(C(=O)c2cnc(N3CC(F)(F)C3)c(OCC3CC3)n2)C1` (stereo not drawn) [Example 35, 1-[6-Cyclopropylmethoxy-5-(3,3-difluoro-azetidin-1-yl)-pyrazine-2-carbonyl]-4,4-dimethyl-pyrrolidine-2-carboxylic acid amide], in that order: 11.5 nM and over 10000 nM.
For the compound `O=C(c1cnc(C2CC2)c(OCC2CC2)n1)N1CCOCC12CC2` [Example 17, (5-Cyclopropyl-6-cyclopropylmethoxy-pyrazin-2-yl)-(7-oxa-4-aza-spiro[2.5]oct-4-yl)-methanone], the EC50 at human CB2 receptors (setting [1]) was 140 nM; on human CB1 receptors (setting [2]), over 10000 nM.

As a reminder, the EC50 is the concentration needed to bring the measured effect to its halfway point.
